Literature values in patent publication US20130190388A1, “Methods and Compositions Related to DLK-1 and the P38 MAPK Pathway in Nerve Regeneration” (University of Utah Research Foundation, priority 2008, published 2013).

Tests used:
[1] = test system: adult DRG neurons; details: inhibiting p38 signaling; reduced from about 65% without inhibitor
[2] = test system: Magellan (Phr-1) growth cone phenotype; details: Phr-1 (Magellan) mutant neurons

SMILES	regeneration in vitro by adult DRG neurons [1] [%]	growth cone phenotype (expanded region of disorganized microtubules) [2]
C[S+]([O-])c1ccc(-c2nc(-c3ccncc3)c(-c3ccc(F)cc3)[nH]2)cc1 (centres unmarked) [SB203580]	10	
CC(=O)O[C@H]1C(=O)[C@@]2(C)[C@H]([C@H](OC(=O)c3ccccc3)[C@]3(O)C[C@H](OC(=O)[C@H](O)[C@@H](NC(=O)c4ccccc4)c4ccccc4)C(C)=C1C3(C)C)[C@]1(OC(C)=O)CO[C@@H]1C[C@@H]2O [Taxol]		rescued
